Reference: patent US6737383B1, “Herbicidal oxadiazolidines” (priority 1999, dated 2004)

Tests used:
velvetleaf = experiment: Test B pre/postemergence velvetleaf; type: in vivo, Abutilon theophrasti; conditions: for Plant response rating, Velvetleaf: Rate 250 g/ha
In short: (§1)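 Herbicidal effect was estimated by eye on a ten-point control scale after plants spent twelve to sixteen days in a greenhouse following soil or foliar treatment. Foliar sprays targeted plants at one to four leaves; all doses were formulated in a non-phytotoxic solvent with surfactant.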

smallflower flatsedge = experiment: Test B flood test smallflower flatsedge; type: in vivo, Cyperus difformis
In short: (§2)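 Each value is a visual injury score relative to controls, with 10 meaning complete control and 0 no effect. Evaluation took place twelve to sixteen days after the 2-leaf-stage plants were treated and kept in the greenhouse.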

sugar beet = experiment: Test B pre/postemergence sugar beet; type: in vivo, Beta vulgaris; conditions: for Plant response rating, Sugarbeets: Rate 250 g/ha
In short: as §1

rice = experiment: Test B flood test rice; type: in vivo, Oryza sativa
In short: as §2

corn = experiment: Test B pre/postemergence corn; type: in vivo, Zea mays; conditions: for Plant response rating, Corn: Rate 250 g/ha
In short: as §1

giant foxtail = experiment: Test B pre/postemergence giant foxtail; type: in vivo, Setaria faberii; conditions: for Plant response rating, Giant foxtail: Rate 250 g/ha
In short: as §1

duck salad = experiment: Test B flood test duck salad; type: in vivo, Heteranthera limosa
In short: as §2

morningglory = experiment: Test B pre/postemergence morningglory; type: in vivo, Ipomoea hederacea; conditions: for Plant response rating, Morningglory: Rate 250 g/ha
In short: as §1

blackgrass = experiment: Test B pre/postemergence blackgrass; type: in vivo, Alopecurus myosuroides; conditions: for Plant response rating, Blackgrass: Rate 250 g/ha
In short: as §1

soybean = experiment: Test B pre/postemergence soybean; type: in vivo, Glycine max; conditions: for Plant response rating, Soybean: Rate 250 g/ha
In short: as §1

pigweed = experiment: Test B pre/postemergence pigweed; type: in vivo, Amaranthus retroflexus; conditions: for Plant response rating, Redroot pigweed: Rate 250 g/ha
In short: as §1

purple nutsedge = experiment: Test B pre/postemergence purple nutsedge; type: in vivo, Cyperus rotundus; conditions: for Plant response rating, Nutsedge: Rate 250 g/ha
In short: as §1

surinam grass = experiment: Test B pre/postemergence surinam grass; type: in vivo, Brachiaria decumbens; conditions: for Plant response rating, B. signalgrass: Rate 250 g/ha
In short: as §1

rape = experiment: Test B pre/postemergence rape; type: in vivo, Brassica napus; conditions: for Plant response rating, Rape: Rate 250 g/ha
In short: as §1

bedstraw = experiment: Test B pre/postemergence bedstraw; type: in vivo, Galium aparine
In short: as §1

bamyardgrass = experiment: Test B flood test barnyardgrass; type: in vivo, Echinochloa crus-galli
In short: as §2

[1] = Postemergence, Rate 125 g/ha, scale of 0 to 10 where 0 is no effect and 10 is complete control
[2] = Preemergence, Rate 62 g/ha, scale 0 to 10 (0 no effect, 10 complete control)
[3] = Preemergence, Rate 125 g/ha, 0 is no effect, 10 is complete control
[4] = Preemergence, scale of 0 to 10 where 0 is no effect and 10 is complete control
[5] = Preemergence, Rate 500 g/ha, scale 0 to 10 (0 no effect, 10 complete control)
[6] = Rate 62 g/ha, Postemergence, scale of 0 to 10 where 0 is no effect and 10 is complete control
[7] = Postemergence, scale 0 to 10, 0 is no effect, 10 is complete control
[8] = Rate 500 g/ha, Postemergence, scale 0 to 10, 0 no effect, 10 complete control
[9] = Postemergence (flood test species), Rate 125 g/ha, scale of 0 to 10 where 0 is no effect and 10 is complete control
[10] = Rate 62 g/ha, Postemergence section, flood test species, scale of 0 to 10 where 0 is no effect and 10 is complete control
[11] = Rate 250 g/ha, Postemergence (flood test), scale 0 to 10, 0 is no effect, 10 is complete control
[12] = Rate 250 g/ha, headed Pre-emergence (flood test species), scale 0 to 10 (0 no effect, 10 complete control)
[13] = Rate 500 g/ha, headed Pre-emergence (flood test species), scale 0 to 10 (0 no effect, 10 complete control)
[14] = Rate 500 g/ha, listed under Postemergence (flood test species), scale 0 to 10, 0 no effect, 10 complete control
[15] = Rate 2000 g/ha, Pre-emergence (as headed), scale 0 to 10
[16] = Rate 1000 g/ha, Pre-emergence (as headed), scale 0 to 10
[17] = Postemergence, Rate 62 g/ha, scale 0 to 10, 0 is no effect, 10 is complete control

CC(C)N(C(=O)n1oc(=O)n(-c2cnn(C)c2Cl)c1=O)c1ccccc1 [Compound 122]
Velvetleaf plant response rating (velvetleaf; [1]): 0 | Velvetleaf plant response rating (velvetleaf; [2]): 0 | Velvetleaf plant response rating (0 to 10 scale) (velvetleaf; [3]): 0 | Plant response rating, Velvetleaf (velvetleaf; [4]): 0 | Velvetleaf plant response rating (velvetleaf; [5]): 3 | Velvetleaf plant response rating (velvetleaf; [6]): 0 | Plant response rating, Velvetleaf (velvetleaf; [7]): 3 | Velvetleaf plant response rating (velvetleaf; [8]): 3 | S. Flatsedge plant response rating (smallflower flatsedge; [9]): 0 | S. Flatsedge plant response rating (smallflower flatsedge; Pre-emergence, Rate 1000 g/ha, scale 0 to 10 (0 no effect, 10 complete control)): 0 | S. Flatsedge plant response rating (smallflower flatsedge; [10]): 0 | Plant response rating, S. Flatsedge (smallflower flatsedge; [11]): 0 | S. Flatsedge plant response rating (smallflower flatsedge; [12]): 0 | Plant response rating, S. Flatsedge (smallflower flatsedge; [13]): 0 | S. Flatsedge plant response rating (smallflower flatsedge; [14]): 0 | S. Flatsedge plant response rating (smallflower flatsedge; [15]): 0 | Sugarbeets plant response rating (sugar beet; [1]): 0 | Sugarbeets plant response rating (sugar beet; [2]): 0 | Sugarbeets plant response rating (0 to 10 scale) (sugar beet; [3]): 0 | Plant response rating, Sugarbeets (sugar beet; [4]): 0 | Sugarbeets plant response rating (sugar beet; [5]): 4 | Sugarbeets plant response rating (sugar beet; [6]): 0 | Plant response rating, Sugarbeets (sugar beet; [7]): 0 | Sugarbeets plant response rating (sugar beet; [8]): 2 | Rice plant response rating (rice; [9]): 0 | Rice plant response rating (rice; [10]): 0 | Plant response rating, Rice (rice; [11]): 0 | Rice plant response rating (rice; [12]): 0 | Plant response rating, Rice (rice; [13]): 0 | Rice plant response rating (rice; [14]): 0 | Rice plant response rating (rice; [16]): 0 | Rice plant response rating (rice; [15]): 0 | Corn plant response rating (corn; [1]): 0 | Corn plant response rating (corn; [2]): 0 | Corn plant response rating (0 to 10 scale) (corn; [3]): 0 | Plant response rating, Corn (corn; [4]): 0 | Corn plant response rating (corn; [5]): 0 | Corn plant response rating (corn; [6]): 0 | Plant response rating, Corn (corn; [7]): 0 | Corn plant response rating (corn; [8]): 0 | Giant foxtail plant response rating (giant foxtail; [1]): 2 | Giant foxtail plant response rating (giant foxtail; [2]): 7 | Giant foxtail plant response rating (0 to 10 scale) (giant foxtail; [3]): 9 | Plant response rating, Giant foxtail (giant foxtail; [4]): 9 | Giant foxtail plant response rating (giant foxtail; [5]): 9 | Giant foxtail plant response rating (giant foxtail; [6]): 2 | Plant response rating, Giant foxtail (giant foxtail; [7]): 6 | Giant foxtail plant response rating (giant foxtail; [8]): 9 | Ducksalad plant response rating (duck salad; [9]): 0 | Ducksalad plant response rating (duck salad; [10]): 0 | Plant response rating, Ducksalad (duck salad; [11]): 0 | Ducksalad plant response rating (duck salad; [12]): 0 | Plant response rating, Ducksalad (duck salad; [13]): 0 | Ducksalad plant response rating (duck salad; [14]): 0 | Ducksalad plant response rating (duck salad; [16]): 0 | Ducksalad plant response rating (duck salad; [15]): 0 | Morningglory plant response rating (morningglory; [1]): 3 | Morningglory plant response rating (morningglory; [2]): 0 | Morningglory plant response rating (0 to 10 scale) (morningglory; [3]): 0 | Plant response rating, Morningglory (morningglory; [4]): 0 | Morningglory plant response rating (morningglory; [5]): 0 | Morningglory plant response rating (morningglory; [6]): 1 | Plant response rating, Morningglory (morningglory; [7]): 4 | Morningglory plant response rating (morningglory; [8]): 4 | Blackgrass plant response rating (blackgrass; [1]): 0 | Blackgrass plant response rating (blackgrass; [2]): 0 | Blackgrass plant response rating (0 to 10 scale) (blackgrass; [3]): 0 | Plant response rating, Blackgrass (blackgrass; [4]): 0 | Blackgrass plant response rating (blackgrass; [5]): 3 | Blackgrass plant response rating (blackgrass; [6]): 0 | Plant response rating, Blackgrass (blackgrass; [7]): 4 | Blackgrass plant response rating (blackgrass; [8]): 6 | Soybean plant response rating (soybean; [1]): 3 | Soybean plant response rating (soybean; [2]): 0 | Soybean plant response rating (0 to 10 scale) (soybean; [3]): 0 | Plant response rating, Soybean (soybean; [4]): 0 | Soybean plant response rating (soybean; [5]): 0 | Soybean plant response rating (soybean; [6]): 3 | Plant response rating, Soybean (soybean; [7]): 3 | Soybean plant response rating (soybean; [8]): 5 | Redroot pigweed plant response rating (pigweed; [1]): 1 | Redroot pigweed plant response rating (pigweed; [2]): 0 | Redroot pigweed plant response rating (0 to 10 scale) (pigweed; [3]): 5 | Plant response rating, Redroot pigweed (pigweed; [4]): 8 | Redroot pigweed plant response rating (pigweed; [5]): 8 | Redroot pigweed plant response rating (pigweed; [6]): 0 | Plant response rating, Redroot pigweed (pigweed; [7]): 2 | Redroot pigweed plant response rating (pigweed; [8]): 5 | Nutsedge plant response rating (purple nutsedge; [1]): 0 | Nutsedge plant response rating (purple nutsedge; [2]): 0 | Nutsedge plant response rating (0 to 10 scale) (purple nutsedge; [3]): 0 | Plant response rating, Nutsedge (purple nutsedge; [4]): 0 | Nutsedge plant response rating (purple nutsedge; [5]): 0 | Nutsedge plant response rating (purple nutsedge; [6]): 0 | Plant response rating, Nutsedge (purple nutsedge; [7]): 0 | Nutsedge plant response rating (purple nutsedge; [8]): 0 | B. signalgrass plant response rating (surinam grass; [17]): 0 | B. signalgrass plant response rating (surinam grass; [1]): 0 | B. signalgrass plant response rating (surinam grass; [2]): 0 | B. signalgrass plant response rating (0 to 10 scale) (surinam grass; [3]): 0 | Plant response rating, B. signalgrass (surinam grass; [4]): 0 | B. signalgrass plant response rating (surinam grass; [5]): 5 | Plant response rating, B. signalgrass (surinam grass; [7]): 0 | B. signalgrass plant response rating (surinam grass; Rate 500 g/ha, Postemergence, scale of 0 to 10 where 0 is no effect and 10 is complete control): 0 | Rape plant response rating (rape; [1]): 0 | Rape plant response rating (rape; [2]): 0 | Rape plant response rating (0 to 10 scale) (rape; [3]): 0 | Plant response rating, Rape (rape; [4]): 0 | Rape plant response rating (rape; [5]): 3 | Rape plant response rating (rape; [6]): 0 | Plant response rating, Rape (rape; [7]): 3 | Rape plant response rating (rape; [8]): 4 | Bedstraw plant response rating (bedstraw; [2]): 0 | Bedstraw plant response rating (0 to 10 scale) (bedstraw; [3]): 0 | Plant response rating, Bedstraw (bedstraw; Preemergence, Rate 250 g/ha, scale of 0 to 10 where 0 is no effect and 10 is complete control): 0 | Bedstraw plant response rating (bedstraw; [5]): 0 | Bedstraw plant response rating (bedstraw; [8]): 3 | Barnyardgrass plant response rating (bamyardgrass; [9]): 0 | Barnyardgrass plant response rating (bamyardgrass; [17]): 0 | Plant response rating, Barnyardgrass (bamyardgrass; [11]): 0 | Barnyardgrass plant response rating (bamyardgrass; [12]): 0 | Plant response rating, Barnyardgrass (bamyardgrass; [13]): 0 | Barnyardgrass plant response rating (bamyardgrass; [14]): 0 | Barnyardgrass plant response rating (bamyardgrass; [16]): 0 | Barnyardgrass plant response rating (bamyardgrass; Rate 2000 g/ha, Pre-emergence (as headed), scale 0 to 10, 0 no effect, 10 complete control): 0
